Experimental data published in patent publication US8637537B2, “Serine/threonine kinase inhibitors” (Genentech, Inc., priority 2011, dated 2014).
Structures can show the parent of a compound that is named as a salt. Where two headings read alike, the source gives them in different places.

Molecular target: T1, human recombinant GST-PAK1-KD protein (Homo sapiens, UniProt Q13153)
T1 construct: residues #249-545 of human PAK1, UniProtKP/Swiss Q13153; His6 (N); made in house; host or cells: Sf9 insect cells, pAcGP67 baculovirus expression vector
Assay: GST-PAK1-KD (kinase domain) biochemical assay, microfluidic mobility shift

[1] = Table I, PAK1 Ki class, read-out: Ki
[2] = Table II, PAK1 Ki class, read-out: Ki

T1 sequence (Q13153 249-545): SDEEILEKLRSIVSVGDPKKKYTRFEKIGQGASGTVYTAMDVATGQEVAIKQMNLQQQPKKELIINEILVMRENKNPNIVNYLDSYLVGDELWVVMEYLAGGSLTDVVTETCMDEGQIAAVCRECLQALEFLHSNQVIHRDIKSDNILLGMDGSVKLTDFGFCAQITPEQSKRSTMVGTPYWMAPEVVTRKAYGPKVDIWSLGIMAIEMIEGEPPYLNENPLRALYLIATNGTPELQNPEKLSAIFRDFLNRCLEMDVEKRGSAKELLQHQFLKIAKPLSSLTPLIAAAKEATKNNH

Row | Structure (SMILES) | Ki [2] [nM] | other results
1 | C[C@H](Nc1nccc(Nc2cc(C3CCCO3)[nH]n2)n1)c1ccc2[nH]ccc2c1 (stereo partly drawn) [I-116, N^2—((S)-1-(1H-indol-5-yl)ethyl)-N^4-(5-(tetrahydrofuran-2-yl)-1H-pyrazol-3-yl)pyrimidine-2,4-diamine] | – | Ki [1]: 250 to 1000 nM
2 | Fc1cnc(NCc2ccc3[nH]cnc3c2Cl)nc1Nc1cc(C2CC2)[nH]n1 [I-117, N^2-((4-chloro-1H-benzo[d]imidazol-5-yl)methyl)-N^4-(5-cyclopropyl-1H-pyrazol-3-yl)-5-fluoropyrimidine-2,4-diamine] | – | Ki [1]: < 50 nM
3 | c1cc(CNc2nccc(Nc3cc(C4CCCO4)[nH]n3)n2)c2cc[nH]c2c1 (stereo not shown) [I-119, N^2-((1H-indol-4-yl)methyl)-N^4-(5-(tetrahydrofuran-2-yl)-1H-pyrazol-3-yl)pyrimidine-2,4-diamine] | – | Ki [1]: 250 to 1000 nM
4 | Fc1cnc(NCc2cccc3[nH]ccc23)nc1Nc1cc(C2CC2)[nH]n1 [I-120] | – | Ki [1]: 50 to 250 nM
5 | Cc1cc(Nc2ccnc(N[C@@H](C)c3ccc4[nH]cnc4c3)n2)n[nH]1 [I-121, (S)—N^2-(1-(1H-benzo[d]imidazol-5-yl)ethyl)-N^4-(5-methyl-1H-pyrazol-3-yl)pyrimidine-2,4-diamine] | – | Ki [1]: 250 to 1000 nM
6 | Cc1ccc2[nH]ccc2c1CNc1nccc(Nc2cc(C3CC3)[nH]n2)n1 [I-122, N^4-(5-Cyclopropyl-1H-pyrazol-3-yl)-N^2-((5-methyl-1H-indol-4-yl)methyl)pyrimidine-2,4-diamine] | – | Ki [1]: 50 to 250 nM
7 | CN(Cc1ccc2[nH]cnc2c1Cl)c1nccc(Nc2cc(OCc3ccccc3)[nH]n2)n1 [II-3, N^4-(5-Benzyloxy-1H-pyrazol-3-yl)-N^2-[(4-chloro-1H-benzimidazol-5-yl)methyl]-N^2-methyl-pyrimidine-2,4-diamine] | < 50 | –
8 | Clc1c(CNc2nccc(Nc3cc(C4COC4)[nH]n3)n2)ccc2[nH]cnc12 [II-4, N^2-[(4-chloro-1H-benzimidazol-5-yl)methyl]-N^4-[5-(oxetan-3-yl)-1H-pyrazol-3-yl]pyrimidine-2,4-diamine, formic acid salt] | < 50 | –
9 | CN(Cc1ccc2[nH]cnc2c1Cl)c1ncc(F)c(Nc2cc(C3COC3)[nH]n2)n1 [II-5, N^2-[(4-Chloro-1H-benzimidazol-5-yl)methyl]-5-fluoro-N^2-methyl-N^4-[5-(oxetan-3-yl)-1H-pyrazol-3-yl]pyrimidine-2,4-diamine] | < 50 | –
10 | Clc1c(CNc2nccc(Nc3cc(OCC4CC4)[nH]n3)n2)ccc2[nH]cnc12 [II-6, N^2-(4-Chloro-1H-benzoimidazol-5-ylmethyl)-N4-(5-cyclopropylmethoxy-1H-pyrazol-3-yl)-pyrimidine-2,4-diamine] | < 50 | –
11 | Cc1c(CNc2ncc(F)c(Nc3cc(C4CC4)[nH]n3)n2)ccc2[nH]cnc12 [II-8, N^4-(5-Cyclopropyl-1H-pyrazol-3-yl)-5-fluoro-N^2-[(4-methyl-1H-benzimidazol-5-yl)methyl]pyrimidine-2,4-diamine] | 50 to 250 | –
12 | c1cc(CNc2nccc(Nc3cc(C4COC4)[nH]n3)n2)c2cc[nH]c2c1 [II-9, N^2-(1H-indol-4-ylmethyl)-N^4-[5-(oxetan-3-yl)-1H-pyrazol-3-yl]pyrimidine-2,4-diamine] | 50 to 250 | –
13 | c1cncc(CN(Cc2cccc3[nH]ccc23)c2nccc(Nc3cc(C4CC4)[nH]n3)n2)c1 [II-10, N^4-(5-Cyclopropyl-1H-pyrazol-3-yl)-N^2-(1H-indol-4-ylmethyl)-N^2-(3-pyridylmethyl)pyrimidine-2,4-diamine] | 50 to 250 | –
14 | Cc1n[nH]c2cc(Cl)cc(CNc3nccc(Nc4cc(C5CC5)[nH]n4)n3)c12 [II-12, N^2-((6-Chloro-3-methyl-1H-indazol-4-yl)methyl)-N^4-(5-cyclopropyl-1H-pyrazol-3-yl)pyrimidine-2,4-diamine] | < 50 | –
15 | Cc1n[nH]c2cccc(CN(C)c3nccc(Nc4cc(C5CC5)[nH]n4)n3)c12 [II-19, N^4-(5-Cyclopropyl-1H-pyrazol-3-yl)-N^2-methyl-N^2-((3-methyl-1H-indazol-4-yl)methyl)pyrimidine-2,4-diamine] | < 50 | –
16 | C[C@@H](Oc1cc(Nc2ccnc(N(C)Cc3ccc4[nH]cnc4c3Cl)n2)n[nH]1)c1ccccc1 [II-21, (R)-N^2-((4-Chloro-1H-benzo[d]imidazol-5-yl)methyl)-N^2-methyl-N^4-(5-(1-phenylethoxy)-1H-pyrazol-3-yl)pyrimidine-2,4-diamine] | < 50 | –
17 | COc1n[nH]c2cccc(CNc3nccc(Nc4cc(C5CC5)[nH]n4)n3)c12 [II-22, N^4-(5-Cyclopropyl-1H-pyrazol-3-yl)-N^2-((3-methoxy-1H-indazol-4-yl)methyl)pyrimidine-2,4-diamine] | < 50 | –
18 | Cc1cc(CNc2ncc(F)c(Nc3cc(C4CC4)[nH]n3)n2)c2cn[nH]c2c1 [II-25, N^4-(5-Cyclopropyl-1H-pyrazol-3-yl)-5-fluoro-N^2-((6-methyl-1H-indazol-4-yl)methyl)-pyrimidine-2,4-diamine] | < 50 | –
19 | COc1cc(Nc2ccnc(N(C)Cc3ccc4[nH]cnc4c3Cl)n2)n[nH]1 [II-29, N^2-((4-Chloro-1H-benzo[d]imidazol-5-yl)methyl)-N^4-(5-methoxy-1H-pyrazol-3-yl)-N^2-methylpyrimidine-2,4-diamine] | 50 to 250 | –
20 | COc1n[nH]c2cccc(CN(C)c3nccc(Nc4cc(C5CC5)[nH]n4)n3)c12 [II-30, N^4-(5-cyclopropyl-1H-pyrazol-3-yl)-N^2-((3-methoxy-1H-indazol-4-yl)methyl)-N^2-methylpyrimidine-2,4-diamine] | – | Ki: 50 to 250 nM
21 | Cc1nc2c(CNc3ncc(F)c(Nc4cc(C5CC5)[nH]n4)n3)cc(Cl)cc2[nH]1 [II-32, N^2-((6-Chloro-2-methyl-1H-benzo[d]imidazol-4-yl)methyl)-N^4-(5-cyclopropyl-1H-pyrazol-3-yl)-5-fluoropyrimidine-2,4-diamine] | 50 to 250 | –
22 | COCCN(Cc1ccc2[nH]cnc2c1)c1nccc(Nc2cc(C3CC3)[nH]n2)n1 [II-35, N^2-((1H-benzo[d]imidazol-5-yl)methyl)-N^4-(5-cyclopropyl-1H-pyrazol-3-yl)-N^2-(2-methoxyethyl)pyrimidine-2,4-diamine] | 50 to 250 | –
23 | CN(Cc1ccc2[nH]cnc2c1Cl)c1nccc(Nc2cc(OCc3ccccn3)[nH]n2)n1 [II-36] | 50 to 250 | –

Continued, in another order:

Row | Ki [2] [nM] | Structure (SMILES) | other results
24 | < 50 | COc1c(CNc2nccc(Nc3cc(C4CC4)[nH]n3)n2)ccc2[nH]cnc12 [II-1, N^4-(5-Cyclopropyl-1H-pyrazol-3-yl)-N^2-[(4-methoxy-1H-benzimidazol-5-yl)methyl]-pyrimidine-2,4-diamine] | –
25 | < 50 | CCc1c(CNc2nccc(Nc3cc(C4CC4)[nH]n3)n2)ccc2[nH]cnc12 [II-7, N^4-(5-Cyclopropyl-1H-pyrazol-3-yl)-N^2-[(4-ethyl-1H-benzimidazol-5-yl)methyl]pyrimidine-2,4-diamine] | –
26 | < 50 | Cc1cc(CNc2nccc(Nc3cc(C4CC4)[nH]n3)n2)c2cn[nH]c2c1 [II-13, N^4-(5-Cyclopropyl-1H-pyrazol-3-yl)-N^2-((6-methyl-1H-indazol-4-yl)methyl)pyrimidine-2,4-diamine] | –
27 | < 50 | CN(Cc1cc(Cl)cc2[nH]cnc12)c1nccc(Nc2cc(C3CC3)[nH]n2)n1 [II-14, N^2-((6-Chloro-1H-benzo[d]imidazol-4-yl)methyl)-N^4-(5-cyclopropyl-1H-pyrazol-3-yl)-N^2-methylpyrimidine-2,4-diamine] | –
28 | < 50 | Cc1cc2c(CNc3nccc(Nc4cc(C5CC5)[nH]n4)n3)cccc2[nH]1 [II-15, N^4-(5-Cyclopropyl-1H-pyrazol-3-yl)-N^2-((2-methyl-1H-indol-4-yl)methyl)pyrimidine-2,4-diamine] | –
29 | < 50 | Cc1nc2c(CNc3nccc(Nc4cc(C5CC5)[nH]n4)n3)cc(Cl)cc2[nH]1 [II-17, N^2-((6-Chloro-2-methyl-1H-benzo[d]imidazol-4-yl)methyl)-N^4-(5-cyclopropyl-1H-pyrazol-3-yl)pyrimidine-2,4-diamine] | –
30 | < 50 | C[C@H](Nc1nccc(Nc2cc(C3CC3)[nH]n2)n1)c1cc(F)cc2[nH]cnc12 [II-18, (S)-N^4-(5-cyclopropyl-1H-pyrazol-3-yl)-N^2-(1-(6-fluoro-1H-benzo[d]imidazol-4-yl)ethyl)pyrimidine-2,4-diamine] | –
31 | < 50 | Fc1ccc2[nH]ccc2c1CNc1nccc(Nc2cc(C3CC3)[nH]n2)n1 [II-20, N^4-(5-cyclopropyl-1H-pyrazol-3-yl)-N^2-((5-fluoro-1H-indol-4-yl)methyl)pyrimidine-2,4-diamine] | –
32 | < 50 | CC(C)N(Cc1ccc2[nH]cnc2c1)c1nccc(Nc2cc(C3CC3)[nH]n2)n1 [II-26, N^2-((1H-Benzo[d]imidazol-5-yl)methyl)-N^4-(5-cyclopropyl-1H-pyrazol-3-yl)-N^2-isopropylpyrimidine-2,4-diamine] | –
33 | 50 to 250 | Fc1cc(CNc2nccc(Nc3cc(C4CC4)[nH]n3)n2)c2nc[nH]c2c1 [II-27, N^4-(5-Cyclopropyl-1H-pyrazol-3-yl)-N^2-((6-fluoro-1H-benzo[d]imidazol-4-yl)methyl)-pyrimidine-2,4-diamine] | –
34 | 50 to 250 | Cc1cc(CNc2nccc(Nc3cc(C4CC4)[nH]n3)n2)c2nc[nH]c2c1 [II-28, N^4-(5-Cyclopropyl-1H-pyrazol-3-yl)-N^2-((6-methyl-1H-benzo[d]imidazol-4-yl)methyl)-pyrimidine-2,4-diamine] | –
35 | 50 to 250 | Cc1cc2[nH]cnc2cc1[C@H](C)Nc1nccc(Nc2cc(C3CC3)[nH]n2)n1 [II-31, (S)-N^4-(5-Cyclopropyl-1H-pyrazol-3-yl)-N^2-(1-(6-methyl-1H-benzo[d]imidazol-5-yl)ethyl)pyrimidine-2,4-diamine] | –
36 | 50 to 250 | Cc1nc2c(CNc3nccc(Nc4cc(C5CC5)[nH]n4)n3)cc(F)cc2[nH]1 [II-34, N^4-(5-Cyclopropyl-1H-pyrazol-3-yl)-N^2-((6-fluoro-2-methyl-1H-benzo[d]imidazol-4-yl)-methyl)pyrimidine-2,4-diamine] | –
37 | 50 to 250 | C[C@H](Nc1nccc(Nc2cc(C3CC3)[nH]n2)n1)c1cc2nc[nH]c2cc1Cl [II-38, (S)-N^2-(1-(6-Chloro-1H-benzo[d]imidazol-5-yl)ethyl)-N^4-(5-cyclopropyl-1H-pyrazol-3-yl)pyrimidine-2,4-diamine] | –
